What was measured:
Format in all cases: in vivo
Watergrass (Echinochloa) [1] = test: Pre-Emergent Test, herbicidal effectiveness; details: pre-emergence, 504 h, 33 micrograms per cm^2, 3 weeks, 0-to-100 scale, read-out: Herbicidal Effectiveness, % Control Pre, W
Description: (§1) An acetone solution of the test compound was prepared by mixing 750 mg of the compound, 220 mg of a nonionic surfactant and 25 ml of acetone. This solution was added to approximately 125 ml of water containing 156 mg of surfactant.
(§2) Seeds of the test vegetation were planted in a pot of soil and the test solution was sprayed uniformly onto the soil surface at a dose of 33 micrograms/cm^2. The pot was watered and placed in a greenhouse. […] At the end of this period, the herbicidal effectiveness of the compound was rated based on the physiological observations. A 0-to-100 scale was used, 0 representing no phytotoxicity, 100 representing complete kill.

Wild Oats (Avena fatua) [2] = test: Pre-Emergent Test, herbicidal effectiveness; details: pre-emergence, 504 h, 33 micrograms per cm^2, 3 weeks, 0-to-100 scale, read-out: Herbicidal Effectiveness, % Control Pre, O
Description: as §1, §2

[3] = tested on: Mustard (Brassica arvensis); test: Pre-Emergent Test, herbicidal effectiveness; details: pre-emergence, 504 h, 33 micrograms per cm^2, 3 weeks, 0-to-100 scale
Description: as §1, §2

[4] = tested on: Pigweed (Amaranthus retroflexus); test: Pre-Emergent Test, herbicidal effectiveness; details: pre-emergence, 504 h, 33 micrograms per cm^2, 3 weeks, 0-to-100 scale, read-out: Herbicidal Effectiveness, % Control Pre, P
Description: as §1, §2

[5] = tested on: Lambsquarter (Chenopodium album); test: Pre-Emergent Test, herbicidal effectiveness; details: pre-emergence, 504 h, 33 micrograms per cm^2, 3 weeks, 0-to-100 scale, read-out: Herbicidal Effectiveness, % Control Pre, L
Description: as §1, §2

[6] = tested on: Crabgrass (Digitaria sanguinalis); test: Pre-Emergent Test, herbicidal effectiveness; details: pre-emergence, 504 h, 33 micrograms per cm^2, 3 weeks, 0-to-100 scale, read-out: Herbicidal Effectiveness, % Control Pre, C
Description: as §1, §2

Watergrass (Echinochloa) [7] = test: Post-Emergent Test, herbicidal effectiveness; details: post-emergence, 504 h, 33 micrograms per cm^2, 3 weeks, 0-to-100 scale, read-out: Herbicidal Effectiveness, % Control Post, W
Wild Oats (Avena fatua) [8] = test: Post-Emergent Test, herbicidal effectiveness; details: post-emergence, 504 h, 33 micrograms per cm^2, 3 weeks, 0-to-100 scale, read-out: Herbicidal Effectiveness, % Control Post, O
[9] = tested on: Mustard (Brassica arvensis); test: Post-Emergent Test, herbicidal effectiveness; details: post-emergence, 504 h, 33 micrograms per cm^2, 3 weeks, 0-to-100 scale
[10] = tested on: Pigweed (Amaranthus retroflexus); test: Post-Emergent Test, herbicidal effectiveness; details: post-emergence, 504 h, 33 micrograms per cm^2, 3 weeks, 0-to-100 scale, read-out: Herbicidal Effectiveness, % Control Post, P
[11] = tested on: Lambsquarter (Chenopodium album); test: Post-Emergent Test, herbicidal effectiveness; details: post-emergence, 504 h, 33 micrograms per cm^2, 3 weeks, 0-to-100 scale, read-out: Herbicidal Effectiveness, % Control Post, L
[12] = tested on: Crabgrass (Digitaria sanguinalis); test: Post-Emergent Test, herbicidal effectiveness; details: post-emergence, 504 h, 33 micrograms per cm^2, 3 weeks, 0-to-100 scale, read-out: Herbicidal Effectiveness, % Control Post, C

| SMILES | pest or weed control at 33 µg/cm2 (Watergrass (Echinochloa) [1]) [%] | pest or weed control at 33 µg/cm2 (Wild Oats (Avena fatua) [2]) [%] | pest or weed control at 33 µg/cm2 [3] [%] | pest or weed control at 33 µg/cm2 [4] [%] | pest or weed control at 33 µg/cm2 [5] [%] | pest or weed control at 33 µg/cm2 [6] [%] | pest or weed control at 5000 µg/mL, 33 µg/cm2 (Watergrass (Echinochloa) [7]) [%] | pest or weed control at 5000 µg/mL, 33 µg/cm2 (Wild Oats (Avena fatua) [8]) [%] | pest or weed control at 5000 µg/mL, 33 µg/cm2 [9] [%] | pest or weed control at 5000 µg/mL, 33 µg/cm2 [10] [%] | pest or weed control at 5000 µg/mL, 33 µg/cm2 [11] [%] | pest or weed control at 5000 µg/mL, 33 µg/cm2 [12] [%] |
| --- | --- | --- | --- | --- | --- | --- | --- | --- | --- | --- | --- | --- |
| Cc1cccc(C)c1N(Cc1nnc[nH]1)C(=O)CCl [Compound 9B] | 100 | 100 | 55 | 100 | 100 | 100 | 75 | 65 | 25 | 0 | 25 | 70 |
| CSc1nnc(CNc2c(C)cccc2C)o1 [Compound 24A, 2-(2,6-dimethylphenylaminomethyl)-5-methylthio-1,3,4-oxadiazole] | 0 | 0 | 0 | 0 | 0 | 0 | 0 | 0 | 0 | 0 | 0 | 0 |
| CSc1nnc(CN(C(=O)CCl)c2c(C)cccc2C)o1 [Compound 24B] | 100 | 85 | 10 | 10 | 10 | 100 | 0 | 0 | 0 | 0 | 0 | 0 |
| Cc1nnc(C(C)Nc2c(C)cccc2C)[nH]1 (stereo not drawn) [Compound 11A] | 0 | 0 | 0 | 0 | 0 | 0 | 0 | 0 | 0 | 0 | 0 | 0 |
| Cc1nnc(CN(C(=O)CCl)c2c(C)cccc2Cl)[nH]1 [Compound 22B] | 100 | 95 | 80 | 93 | 85 | 100 | 60 | 0 | 25 | 75 | 20 | 0 |
| Cc1nnc(CNc2c(C)cccc2Cl)[nH]1 [Compound 22A] | 0 | 0 | 0 | 0 | 0 | 0 | 0 | 0 | 0 | 0 | 0 | 0 |
| CCc1cccc(C)c1NCc1nnc(C(C)C)[nH]1 [Compound 16A] | 0 | 0 | 0 | 0 | 0 | 0 | 0 | 0 | 0 | 0 | 0 | 0 |
